This experiment addresses HIV-1 protease (Human immunodeficiency virus type 1 group M subtype B, UniProt P04585). The experiment in a line: biochemical. To be noted: for inhibition at 0.123 µM: read-out: HIV-1 Protease % Inhib, dose 0.123 uM; for inhibition at 0.37 µM: read-out: HIV-1 Protease % Inhib, dose 0.370 uM; for IC50: HIV-1 Protease IC50. In outline:
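Percent inhibition derived from fluorescent cleavage product separated by filtration after streptavidin-bead capture of intact biotin/FITC substrate. Reaction: enzyme (10 μl, 0.1 μM stock) with substrate (20 μl, 0.2 μM stock) and compound, 1 h at room temperature in dark, pH 5.5 acetate buffer with 1.0 M NaCl and 0.05% NP-40.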

Setting [1] is: read-out: HIV-1 Protease % Inhib, dose 1.100 uM.
The mark [2] stands for this setting: read-out: HIV-1 Protease % Inhib, dose 3.300 uM.
[3] abbreviates: read-out: HIV-1 Protease % Inhib, dose 10.000 uM.
[4] abbreviates: read-out: HIV-1 Protease % Inhib, dose 30.000 uM.
Where [5] appears, read: read-out: HIV-1 Protease % Inhib, dose 1.000 uM.
Where [6] appears, read: read-out: HIV-1 Protease % Inhib, dose 100.000 uM.
The mark [7] stands for this setting: dose 3.300 uM, read-out: HIV-1 Protease % Inhib.
Setting [8] is: dose 10.000 uM, read-out: HIV-1 Protease % Inhib.
Where [9] appears, read: dose 30.000 uM, read-out: HIV-1 Protease % Inhib.
Where [10] appears, read: dose 1.100 uM, read-out: HIV-1 Protease % Inhib.

Where “and” joins values, the source holds several entries; their conditions need not be identical. Equal values may be shown once. Where a name gives a salt, the structure may show the parent alone. Read-outs that look alike come from different tables or passages of the source.

As to `CCCCS(=O)(=O)Nc1cccc(C(c2c(O)c3c(oc2=O)CCCCCC3)C2CC2)c1` (centres unmarked) [Example 326, N-[3-[Cyclopropyl(5,6,7,8,9,10-hexahydro-4-hydroxy-2-oxo-2H-cycloocta[b]pyran-3-yl)methyl]phenyl]-1-butanesulfonamide], the inhibition at 0.123 µM was 51.6% and the inhibition at 0.37 µM was 92.6%. Moreover, under setting [1], the inhibition at 1.1 µM was 102%. Also, the inhibition at 3.3 µM under setting [2] worked out at 106%. The inhibition at 10 µM under setting [3] amounted to 114%. Moreover, under setting [4], the inhibition at 30 µM amounted to 121%.
One may read the IC50 as the concentration at which inhibition is half-maximal. `CCC(c1cccc(NC(=O)CCNC(=O)OC(C)(C)C)c1)c1c(O)c2ccc(OC)cc2oc1=O` (centres unmarked) [Example 58, Coumarin, 4-hydroxy-3-[1-[3-[[3-[(1,1-dimethylethoxycarbonyl)amino]-1-oxopropyl]amino]phenyl]propyl]-7-methoxy-] registered an IC50 of 1.2 µM. In addition, the inhibition at 1 µM under setting [5] is 36.3%. Moreover, the inhibition at 10 µM under setting [3] was 90.2%. Further, under setting [6], the inhibition at 100 µM came to 108%.
As to `CS(=O)(=O)Nc1cccc(C(c2c(O)c3c(oc2=O)CCCCCC3)C2CC2)c1` (centres unmarked) [Example 317, N-[3-[Cyclopropyl(5,6,7,8,9,10-hexahydro-4-hydroxy-2-oxo-2H-cycloocta[b]pyran-3-yl)methyl]phenyl]-methanesulfonamide], the inhibition at 0.123 µM came to 27.8% and the inhibition at 0.37 µM is 46.7%. The inhibition at 1.1 µM under setting [1] stood at 81.7%. Further, the inhibition at 3.3 µM under setting [2] is 101%. Also, under setting [3], the inhibition at 10 µM is 102%. Besides, the inhibition at 30 µM under setting [4] turned out to be 113%.
In the case of `CCCCNC(=O)c1cccc(C(C)c2c(O)c3ccccc3oc2=O)c1` (centres unmarked) [Example 31, Coumarin, 3-[1-[3-[(butylamino)carbonyl]phenyl]ethyl]-4-hydroxy-], the inhibition at 1 µM under setting [5] is below 10%. Moreover, the inhibition at 10 µM under setting [3] is below 10%. For the same molecule, under setting [6], the inhibition at 100 µM turned out to be 53.7%.
On to `CCCc1ccc(S(=O)(=O)Nc2cccc(C(c3c(O)c4c(oc3=O)CCCCCC4)C3CC3)c2)cc1` (centres unmarked) [Example 342, N-[3-[Cyclopropyl(5,6,7,8,9,10-hexahydro-4-hydroxy-2-oxo-2H-cycloocta[b]pyran-3-yl)methyl]phenyl]4-propyl-benzenesulfonamide], for which the inhibition at 0.123 µM stood at 42% and the inhibition at 0.37 µM was found to be 72.9%. For the same molecule, under setting [1], the inhibition at 1.1 µM was 88.2%. In addition, the inhibition at 3.3 µM under setting [2] came out at 87.8%. For the same molecule, under setting [3], the inhibition at 10 µM was 108%. Also, the inhibition at 30 µM under setting [4] was determined as 105%.
Turning to `CCC(c1ccc(Br)cc1)c1c(O)c2ccccc2oc1=O` (centres unmarked) [Example 91, Coumarin, 3-[1-(4-bromophenyl)propyl]-4-hydroxy-], the “HIV-1 Protease % Inhib” value (dose 100.000 uM) is 94.41% and 71.61%. The inhibition at 1 µM under setting [5] was below 10%. Besides, the inhibition at 10 µM under setting [3] worked out at 38.4%.
For the molecule `O=c1oc2c(c(O)c1C(c1cccc(NS(=O)(=O)c3cccs3)c1)C1CC1)CCCCCC2` (centres unmarked) [Example 323, N-[3-[Cyclopropyl(5,6,7,8,9,10-hexahydro-4-hydroxy-2-oxo-2H-cycloocta[b]pyran-3-yl)methyl]phenyl]-2-thiophenesulfonamide], the inhibition at 0.123 µM is 62.8% and the inhibition at 0.37 µM was 91.8%. The inhibition at 1.1 µM under setting [1] turned out to be 100%. Further, under setting [2], the inhibition at 3.3 µM was 104%. Besides, under setting [3], the inhibition at 10 µM was 118%. For the same molecule, the inhibition at 30 µM under setting [4] came out at 112%.
Take `O=c1oc2c(c(O)c1C(c1ccc(NS(=O)(=O)c3ccc(F)cc3)cc1)C1CC1)CCCCCC2` (centres unmarked) [Example 474, Benzenesulfonamide, 4-fluoro-N-[4-[cycloptopyl(5,6,7,8,9,10-hexahydro-4-hydroxy-2-oxo-2H-cycloocta[b]pyran-3-yl)methyl]phenyl]-]: the inhibition at 3.3 µM under setting [7] worked out at 11.4%. The inhibition at 10 µM under setting [8] worked out at 40.4%. Further, the inhibition at 30 µM under setting [9] came to 57.2%.
`O=c1oc2ccccc2c(O)c1C1CCCc2ccccc21` (centres unmarked) [Example 34, 4-hydroxy-3-[1-(1,2,3,4-tetrahydro)naphthyl]-coumarin] came in with an IC50 of 3.6 µM. The inhibition at 1 µM under setting [5] is below 10%. In addition, under setting [3], the inhibition at 10 µM turned out to be 50.3%. Also, the inhibition at 100 µM under setting [6] was 91.1%.
In the case of `CCC(c1cccc(NC(=O)CCN)c1)c1c(O)c2c(oc1=O)CCCCCC2` (centres unmarked) [Example 220, Propanamide, 3-amino-N-[3-[1-(5,6,7,8,9,10-hexahydro4-hydroxy-2-oxo-2H-cycloocta[b]pyran-3-yl)propyl]phenyl]-, monohydrochloride], the inhibition at 1.1 µM under setting [10] is 25.2%. In addition, under setting [7], the inhibition at 3.3 µM was 63.6%. Also, the inhibition at 10 µM under setting [8] worked out at 94%. For the same molecule, the inhibition at 30 µM under setting [9] amounted to 101%.
Consider `O=c1oc2ccccc2c(O)c1C(=Cc1ccccc1)c1ccccc1` [Example 21, 3-(1,2-Diphenylethenyl)4-hydroxycoumarin], for which the inhibition at 1 µM (dose 1.000 uM, read-out: HIV-1 Protease % Inhib) is below 10%. Moreover, under setting [8], the inhibition at 10 µM amounted to 12.1%. Moreover, the inhibition at 100 µM (dose 100.000 uM, read-out: HIV-1 Protease % Inhib) is 74.3%.
Consider `O=c1oc2c(c(O)c1C(c1cccc(NS(=O)(=O)c3cc(Cl)ccc3Cl)c1)C1CC1)CCCCCC2` (centres unmarked) [Example 271, 2,5-Dichloro-N-[3-[cyclopropyl(5,6,7,8,9,10-hexahydro-4-hydroxy-2-oxo-2H-cycloocta[b]pyran-3-yl)methyl]phenyl]-benzenesulfonamide], for which the inhibition at 0.37 µM was found to be 16.7%. Under setting [1], the inhibition at 1.1 µM came to 47.5%. Further, the inhibition at 3.3 µM under setting [2] was found to be 75.3%. Moreover, under setting [3], the inhibition at 10 µM worked out at 88.8%. The inhibition at 30 µM under setting [4] worked out at 94.2%.
With `Cc1ccc(S(=O)(=O)Nc2cccc(C(c3c(O)c4c(oc3=O)CCCCCC4)C3CC3)c2)cc1` (centres unmarked) [Example 325, N-[3-[Cyclopropyl(5,6,7,8,9,10-hexahydro-4-hydroxy-2-oxo-2H-cycloocta[b]pyran-3-yl)methyl]phenyl]4-methyl-benzenesulfonamide], the inhibition at 0.123 µM stood at 59.8% and the inhibition at 0.37 µM came out at 86.6%. Also, the inhibition at 1.1 µM under setting [1] is 95.6%. For the same molecule, the inhibition at 3.3 µM under setting [2] was determined as 105%. For the same molecule, the inhibition at 10 µM under setting [3] was determined as 115%. The inhibition at 30 µM under setting [4] was determined as 115%.
The molecule `O=c1oc2ccccc2c(O)c1C(C1CC1)C1CC1` [Example 104, 3-(dicyclopropyl)methyl-4-hydroxycoumarin] showed an IC50 of 6.74 µM. Besides, the inhibition at 1 µM under setting [5] was determined as 12.2%. Moreover, the inhibition at 10 µM under setting [3] is 68.7%. In addition, the inhibition at 100 µM under setting [6] turned out to be 106%.
On the same counts, the results for `CCC(c1cccc(NC(=O)CCc2ccccc2)c1)c1c(O)c2ccc(OC)cc2oc1=O` (centres unmarked) [Example 57, Coumarin, 4-hydroxy-7-methoxy-3-[1-[3-[(1-oxo-3-phenylpropyl)amino]phenyl]propyl]-] are 2.8 µM, 17.6%, 94.4% and 99.3%.
In the case of `CCCC(c1cccc(C)c1)c1c(O)c2ccccc2oc1=O` (centres unmarked) [Example 97, Coumarin, 4-hydroxy-3-[1-(3-methylphenyl)butyl]-], the inhibition at 1 µM under setting [5] is below 10%. Also, under setting [3], the inhibition at 10 µM amounted to 29.9%. Moreover, the inhibition at 100 µM under setting [6] came out at 78.2%.
The corresponding values for `CC(Cc1c(O)c2ccccc2oc1=O)c1ccccc1` (centres unmarked) [Example 5, 4-Hydroxy-3-(2-phenylpropyl)coumarin] are 15.4%, 55.4% and 95%.
As for `O=c1oc2ccccc2c(O)c1C1CCc2ccccc21` (centres unmarked) [Example 35, 4-hydroxy-3-[1-indanyl]-coumarin], half-maximal inhibition (IC50) required 6.8 µM. Also, the inhibition at 1 µM under setting [5] was below 10%. The inhibition at 10 µM under setting [3] was 19.6%. In addition, the inhibition at 100 µM under setting [6] worked out at 92.6%.
On the same counts, the results for `C=CCOc1ccc2c(O)c(C(CC)c3ccccc3)c(=O)oc2c1` (stereo not drawn) [Example 78, Coumarin, 7-(allyloxy)-3-(α-ethylbenzyl)-4-hydroxy-] are 8.4 µM, below 10%, 65.7% and 83.5%.
Turning to `O=c1oc2ccccc2c(O)c1C1CCOc2ccccc21` (centres unmarked) [Example 158, 4-Hydroxy-3',4'-dihydro-2'H-[3,4]bichromenyl-2-one], the inhibition at 1 µM under setting [5] is below 10%. In addition, under setting [3], the inhibition at 10 µM worked out at 26.7%. Also, the inhibition at 100 µM under setting [6] turned out to be 93.4%.
`C=CS(=O)(=O)Nc1cccc(C(c2c(O)c3c(oc2=O)CCCCC3)C2CC2)c1` (centres unmarked) [Example 363, N-[3-[Cyclopropyl(2,5,6,7,8,9-hexahydro-4-hydroxy-2-oxocyclohepta[b]pyran-3-yl)methyl]phenyl]-ethenesulfonamide]: under setting [10], the inhibition at 1.1 µM worked out at 21.5%. For the same molecule, the inhibition at 3.3 µM under setting [7] worked out at 58.8%. In addition, the inhibition at 10 µM under setting [8] is 84.8%. Further, the inhibition at 30 µM under setting [9] is 107%.
In the case of `CS(=O)(=O)N(Cc1ccccc1)c1cccc(C(c2c(O)c3c(oc2=O)CCCCCC3)C2CC2)c1` (centres unmarked) [Example 245, N-[3-[Cyclopropyl(5,6,7,8,9, 10-hexahydro-4-hydroxy-2-oxo-2H-cycloocta[b]pyran-3-yl)methyl]phenyl]-N-(phenylmethyl)-methanesulfonamide], the inhibition at 1.1 µM under setting [10] came to 10.6%. Besides, under setting [7], the inhibition at 3.3 µM worked out at 50.9%. The inhibition at 10 µM under setting [8] amounted to 59.5%. The inhibition at 30 µM under setting [9] worked out at 78.6%.
In the case of `CCC(c1cccc(C#N)c1)c1c(O)c2ccccc2oc1=O` (centres unmarked) [Example 98, Coumarin, 3-[1-(3-cyanophenyl)propyl]-4-hydroxy-], the inhibition at 1 µM under setting [5] was below 10%. The inhibition at 10 µM under setting [3] is below 10%. For the same molecule, the inhibition at 100 µM under setting [6] is 74.5%.

The values are drawn from patent publication US5686486A, “4-hydroxy-benzopyran-2-ones and 4-hydroxy-cycloalkyl[b]pyran-2-ones useful to treat retroviral infections” (priority 1995, dated 1997).
